Experimental data reported in BigSolDB 2.1.

## O=C(O)/C=C/c1ccc(Cl)cc1
In 1,4-dioxane, 288.15 K
  solubility (mole fraction): 0.00826
In 1,4-dioxane, 293.15 K
  solubility (mole fraction): 0.0094
In 1,4-dioxane, 298.15 K
  solubility (mole fraction): 0.0106
In 1,4-dioxane, 303.15 K
  solubility (mole fraction): 0.0118
In 1,4-dioxane, 308.15 K
  solubility (mole fraction): 0.0132
In 1,4-dioxane, 313.15 K
  solubility (mole fraction): 0.0148
In 1,4-dioxane, 318.15 K
  solubility (mole fraction): 0.0158
In 1,4-dioxane, 323.15 K
  solubility (mole fraction): 0.018
In acetone, 283.15 K
  solubility (mole fraction): 0.00214
In acetone, 288.15 K
  solubility (mole fraction): 0.00248
In acetone, 293.15 K
  solubility (mole fraction): 0.00303
In acetone, 298.15 K
  solubility (mole fraction): 0.00334
In acetone, 303.15 K
  solubility (mole fraction): 0.00388
In acetone, 308.15 K
  solubility (mole fraction): 0.00434
In acetone, 313.15 K
  solubility (mole fraction): 0.00509
In acetone, 318.15 K
  solubility (mole fraction): 0.00556
In acetone, 323.15 K
  solubility (mole fraction): 0.00654
In acetonitrile, 283.15 K
  solubility (mole fraction): 0.000318
In acetonitrile, 288.15 K
  solubility (mole fraction): 0.000351
In acetonitrile, 293.15 K
  solubility (mole fraction): 0.000365
In acetonitrile, 298.15 K
  solubility (mole fraction): 0.000425
In acetonitrile, 303.15 K
  solubility (mole fraction): 0.000468
In acetonitrile, 308.15 K
  solubility (mole fraction): 0.000515
In acetonitrile, 313.15 K
  solubility (mole fraction): 0.000622
In acetonitrile, 318.15 K
  solubility (mole fraction): 0.000803
In acetonitrile, 323.15 K
  solubility (mole fraction): 0.00105
In ethanol, 283.15 K
  solubility (mole fraction): 0.00136
In ethanol, 288.15 K
  solubility (mole fraction): 0.00166
In ethanol, 293.15 K
  solubility (mole fraction): 0.00184
In ethanol, 298.15 K
  solubility (mole fraction): 0.00207
In ethanol, 303.15 K
  solubility (mole fraction): 0.00238
In ethanol, 308.15 K
  solubility (mole fraction): 0.00265
In ethanol, 313.15 K
  solubility (mole fraction): 0.00317
In ethanol, 318.15 K
  solubility (mole fraction): 0.00363
In ethanol, 323.15 K
  solubility (mole fraction): 0.004
In ethyl acetate, 283.15 K
  solubility (mole fraction): 0.00159
In ethyl acetate, 288.15 K
  solubility (mole fraction): 0.00166
In ethyl acetate, 293.15 K
  solubility (mole fraction): 0.0019
In ethyl acetate, 298.15 K
  solubility (mole fraction): 0.00214
In ethyl acetate, 303.15 K
  solubility (mole fraction): 0.00242
In ethyl acetate, 308.15 K
  solubility (mole fraction): 0.00266
In ethyl acetate, 313.15 K
  solubility (mole fraction): 0.00315
In ethyl acetate, 318.15 K
  solubility (mole fraction): 0.00379
In ethyl acetate, 323.15 K
  solubility (mole fraction): 0.00442
In isobutanol, 283.15 K
  solubility (mole fraction): 0.00102
In isobutanol, 288.15 K
  solubility (mole fraction): 0.00125
In isobutanol, 293.15 K
  solubility (mole fraction): 0.00154
In isobutanol, 298.15 K
  solubility (mole fraction): 0.00177
In isobutanol, 303.15 K
  solubility (mole fraction): 0.00195
In isobutanol, 308.15 K
  solubility (mole fraction): 0.00223
In isobutanol, 313.15 K
  solubility (mole fraction): 0.00244
In isobutanol, 318.15 K
  solubility (mole fraction): 0.00282
In isobutanol, 323.15 K
  solubility (mole fraction): 0.00325
In isopropanol, 283.15 K
  solubility (mole fraction): 0.00118
In isopropanol, 288.15 K
  solubility (mole fraction): 0.00141
In isopropanol, 293.15 K
  solubility (mole fraction): 0.00165
In isopropanol, 298.15 K
  solubility (mole fraction): 0.0019
In isopropanol, 303.15 K
  solubility (mole fraction): 0.00215
In isopropanol, 308.15 K
  solubility (mole fraction): 0.00255
In isopropanol, 313.15 K
  solubility (mole fraction): 0.0029
In isopropanol, 318.15 K
  solubility (mole fraction): 0.00359
In isopropanol, 323.15 K
  solubility (mole fraction): 0.00454
In methanol, 283.15 K
  solubility (mole fraction): 0.00112
In methanol, 288.15 K
  solubility (mole fraction): 0.00123
In methanol, 293.15 K
  solubility (mole fraction): 0.00136
In methanol, 298.15 K
  solubility (mole fraction): 0.00155
In methanol, 303.15 K
  solubility (mole fraction): 0.00172
In methanol, 308.15 K
  solubility (mole fraction): 0.00187
In methanol, 313.15 K
  solubility (mole fraction): 0.00206
In methanol, 318.15 K
  solubility (mole fraction): 0.00233
In methanol, 323.15 K
  solubility (mole fraction): 0.00251
In methyl acetate, 283.15 K
  solubility (mole fraction): 0.00142
In methyl acetate, 288.15 K
  solubility (mole fraction): 0.00173
In methyl acetate, 293.15 K
  solubility (mole fraction): 0.00201
In methyl acetate, 298.15 K
  solubility (mole fraction): 0.00231
In methyl acetate, 303.15 K
  solubility (mole fraction): 0.00262
In methyl acetate, 308.15 K
  solubility (mole fraction): 0.00298
In methyl acetate, 313.15 K
  solubility (mole fraction): 0.0033
In methyl acetate, 318.15 K
  solubility (mole fraction): 0.00355
In methyl acetate, 323.15 K
  solubility (mole fraction): 0.0038
In n-butanol, 283.15 K
  solubility (mole fraction): 0.00123
In n-butanol, 288.15 K
  solubility (mole fraction): 0.00154
In n-butanol, 293.15 K
  solubility (mole fraction): 0.00184
In n-butanol, 298.15 K
  solubility (mole fraction): 0.00219
In n-butanol, 303.15 K
  solubility (mole fraction): 0.00249
In n-butanol, 308.15 K
  solubility (mole fraction): 0.00283
In n-butanol, 313.15 K
  solubility (mole fraction): 0.00314
In n-butanol, 318.15 K
  solubility (mole fraction): 0.0037
In n-butanol, 323.15 K
  solubility (mole fraction): 0.00427
In n-propanol, 283.15 K
  solubility (mole fraction): 0.0012
In n-propanol, 288.15 K
  solubility (mole fraction): 0.00146
In n-propanol, 293.15 K
  solubility (mole fraction): 0.00177
In n-propanol, 298.15 K
  solubility (mole fraction): 0.002
In n-propanol, 303.15 K
  solubility (mole fraction): 0.00234
In n-propanol, 308.15 K
  solubility (mole fraction): 0.00266
In n-propanol, 313.15 K
  solubility (mole fraction): 0.00308
In n-propanol, 318.15 K
  solubility (mole fraction): 0.00361
In n-propanol, 323.15 K
  solubility (mole fraction): 0.00432
In water, 283.15 K
  solubility (mole fraction): 5.3e-06
In water, 288.15 K
  solubility (mole fraction): 6.88e-06
In water, 293.15 K
  solubility (mole fraction): 8.16e-06
In water, 298.15 K
  solubility (mole fraction): 9.38e-06
In water, 303.15 K
  solubility (mole fraction): 1.16e-05
In water, 308.15 K
  solubility (mole fraction): 1.26e-05
In water, 313.15 K
  solubility (mole fraction): 1.51e-05
In water, 318.15 K
  solubility (mole fraction): 1.74e-05
In water, 323.15 K
  solubility (mole fraction): 2.06e-05
